Results from US20240294509A1, “PYRIDAZINONE COMPOUND AS PARP7 INHIBITOR” (Euregen Biopharma Co., Ltd., priority 2021, published 2024).

Columns and labels:
PARP1 = PARP1 (Homo sapiens (Human), UniProt P09874)
Experimental: (§5) Experimental Principle: The inhibitory effect of the test substance on the enzymatic activity of PARP1/7 is assessed by using an Enzyme-Linked Immunosorbent Assay (ELISA).
(§6) (1) Pre-coating: Add 100 μL of a PBS buffer (10 mM NaH2PO4, 10 mM Na2HPO4, 150 mM NaCl, pH 7.4) containing 20 g/mL of histone to each well of a 96-well plate, and incubate at 4° C. overnight.
(§7) (3) Add 5 μL of the test substance or solvent to each well.
(§8) (4) Add 20 μL of(PARP1 or PARP7 (50 ng/well), and incubate at 30° C. for 1 hour.
(§9) (5) Add 50 μL of streptavidin-HRP to the reaction mixture, and incubate at 30° C. for 30 minutes.
(§10) (6) Finally, add 100 μL of a citrate buffer containing H2O2 and luminol (0.1 M, pH 5.4), and measure the luminescent signal using a microplate reader (Molecular Devices SpectraMax M5).
(§11) (7) Calculate the inhibition rate of PARP1 or PARP7 enzyme activity as [(control group−treatment group)/control group]×10000. Fit the dose-response data with standard dilutions using Prism GraphPad software and calculate the concentration required to achieve 5000 inhibition of PARP1 or PARP7 enzyme activity (IC50).

PARP7 = PARP7 (Homo sapiens (Human), UniProt Q7Z3E1)
Experimental: as §5, §6, §7, §8, §9, §10, §11

NCI-H1373 cells = assay: Inhibitory effect on the proliferation of NCI-H1373 cells (CellTiter-Glo); assay type: cell-based; details: Homo sapiens, 144 h, 6 days treatment
From the text: 1. Experimental Principle: NCI-H1373 cells are a type of lung adenocarcinoma cells that overexpress PARP7.
2. Experimental Materials: NCI-H1373 cells were obtained from Nanjing Cobioer Biosciences Co., Ltd. CellTiter-Glo® (cell viability chemiluminescent assay reagent) was purchased from Promega (Catalog No. G7571). RPMI-1640 medium was obtained from ATCC (Catalog No. 30-2001). RPMI-1640 medium, penicillin/streptomycin antibiotics were purchased from WISENT. Fetal bovine serum was obtained from Biosera. The Nivo multimode reader was procured from PerkinElmer.
3. Experimental Method: NCI-H1373 cells were seeded in a white 96-well plate with 80 μL of cell suspension per well, containing 3000 NCI-H1373 cells. The cell plate was incubated overnight in a carbon dioxide (CO2) incubator.
The test compounds were serially diluted 5-fold to the 9th concentration, ranging from 2 mmol/L to 5.12 nmol/L, for a duplicate assay. 78 μL of culture medium was added to the intermediate plate, and then, according to the corresponding positions, 2 μL of each gradient-diluted compound was transferred to the intermediate plate. After thorough mixing, 20 μL of the compound solution was transferred to the cell plate. The compound concentration range in the cell plate ranged from 10 μmol/L to 0.0256 nmol/L. The cell plate was incubated in a CO2 incubator for 6 days.
Another cell plate was prepared, and the signal values were read on the day of dosing to obtain the maximum value referred to as Max in the following equation for data analysis. 25 μL of cell viability chemiluminescent assay reagent was added to each well of this cell plate, and it was incubated at room temperature for 10 minutes to stabilize the luminescent signal. Readings were taken using a multimode reader.
After 6 days of treatment, 25 μL of cell viability chemiluminescent assay reagent was added to each well of the cell plate, and it was incubated at room temperature for 10 minutes to stabilize the luminescent signal. Readings were taken using a multimode reader.
The IC50 value was determined by four-parameter curve fitting (obtained by using the “log(inhibitor) vs. response—Variable slope” model in GraphPad Prism).

[1] = Metabolic stability in human liver microsomes; assay type: in vitro ADME; details: pH 7.4, 1.00 μM compound, 0.5 mg/mL protein, read-out: intrinsic clearance, Clint
Experimental: (§1) 1. Experiment purpose: This study aims to determine the metabolic stability of selected compounds from the embodiments of the invention in liver microsomes of humans, dogs, monkeys, rats, and mice using the LC-MS/MS method.
(§2) Test compounds: The test drug is self-made from the example compounds of the present invention; Positive control compound RBN2397 purchased from Shanghai BioChemPartner Biotechnology Co., Ltd.
(§3) Liver microsomes obtained from Xenotech.
(§4) The incubation was carried out at 37° C. in a CO2 incubator. The reactions were terminated by adding 150 μL of cold acetonitrile at different time points (0, 5, 15, 30, and 45 minutes). The 96-well plate was shaken at 600 rpm for 10 minutes, followed by centrifugation at 6000 rpm for 15 minutes. The supernatant (80 μL) was mixed with 140 μL of pure water, and the remaining amount of the compound was determined using LC-MS/MS. The intrinsic clearance (Clint) was calculated using the formula Clint=k/liver microsomes protein concentration, where “k” is the linear regression slope of log compound remaining percentage against incubation time.

[2] = Metabolic stability in rat liver microsomes; assay type: in vitro ADME; details: pH 7.4, 1.00 μM compound, 0.5 mg/mL protein, read-out: intrinsic clearance, Clint
Experimental: as §1, §2, §3, §4

[3] = Pharmacokinetic properties in SD rats after single intravenous injection and oral administration; assay type: in vivo; details: SD male rats; for F: oral bioavailability; for AUC(0-inf) / Cmax / clearance / half-life: rat, plasma
From the text: 1. Test purpose: to determine the pharmacokinetic characteristics of some of the example compound of the present invention in SD rats after single intravenous injection(IV) and oral administration(PO) by LC-MS/MS method.
2. Test material: the test drug is self-made from the example compounds of the present invention; Positive control compound RBN2397 purchased from Shanghai BioChemPartner Biotechnology Co., Ltd. SD male rats were obtained from the Laboratory Animal Management Department of Shanghai Family Planning Research Institute. Animal production license number (SCXK (Shanghai) 2018-0006).
Preparation of 0.5% methyl cellulose: 5 g of methyl cellulose were weighed and dissolved in 1000 mL of purified water.
Preparation of oral formulation: A required amount of test compound was weighed and dissolved in 0.5% methyl cellulose solution to obtain a suspension or solution of 0.5 mg/mL or 1.0 mg/mL.
Preparation of intravenous injection formulation: A required amount of test compound was weighed, and dissolved in 0.5 mL of dimethyl sulfoxide to prepare a solution of 4 mg/mL. 0.25 mL of the above solution was added into 0.5 mL of polyethylene glycol 15 hydroxystearate (solutol) and 4.25 mL of physiological saline to obtain a solution of 0.2 mg/mL.
Administration: SD male rats were orally administered (PO) after fasting overnight, and fed 4 hours after administration.
Sample Collection: blood was collected through jugular vein or other suitable vein, and 0.2 mL of blood was collected at each time point. Samples were placed into tubes containing ethylenediamine tetraacetic acid dipotassium salt and kept on ice before centrifugation. Within 1 hour after blood collection, the blood samples were centrifuged at 2-8° C. and 6800 g for 6 minutes and stored at −80° C. The time point for blood collection was 0.083, 0.25, 0.5, 1, 2, 4, 8 and 24 hours after intravenous administration, and 0.25, 0.5, 1, 2, 4, 6, 8 and 24 hours after oral administration.
The intravenous dosage was 1 mg/kg, and the pharmacokinetic parameters for oral administration were standardized to a 1 mg/kg dose.

[4] = Metabolic stability in dog liver microsomes; assay type: in vitro ADME; details: pH 7.4, 1.00 μM compound, 0.5 mg/mL protein, read-out: intrinsic clearance, Clint
Experimental: as §1, §2, §3, §4

[5] = Oral gavage, standardized to a 1 mg/kg dose

Sequence of PARP1 (P09874 whole entry): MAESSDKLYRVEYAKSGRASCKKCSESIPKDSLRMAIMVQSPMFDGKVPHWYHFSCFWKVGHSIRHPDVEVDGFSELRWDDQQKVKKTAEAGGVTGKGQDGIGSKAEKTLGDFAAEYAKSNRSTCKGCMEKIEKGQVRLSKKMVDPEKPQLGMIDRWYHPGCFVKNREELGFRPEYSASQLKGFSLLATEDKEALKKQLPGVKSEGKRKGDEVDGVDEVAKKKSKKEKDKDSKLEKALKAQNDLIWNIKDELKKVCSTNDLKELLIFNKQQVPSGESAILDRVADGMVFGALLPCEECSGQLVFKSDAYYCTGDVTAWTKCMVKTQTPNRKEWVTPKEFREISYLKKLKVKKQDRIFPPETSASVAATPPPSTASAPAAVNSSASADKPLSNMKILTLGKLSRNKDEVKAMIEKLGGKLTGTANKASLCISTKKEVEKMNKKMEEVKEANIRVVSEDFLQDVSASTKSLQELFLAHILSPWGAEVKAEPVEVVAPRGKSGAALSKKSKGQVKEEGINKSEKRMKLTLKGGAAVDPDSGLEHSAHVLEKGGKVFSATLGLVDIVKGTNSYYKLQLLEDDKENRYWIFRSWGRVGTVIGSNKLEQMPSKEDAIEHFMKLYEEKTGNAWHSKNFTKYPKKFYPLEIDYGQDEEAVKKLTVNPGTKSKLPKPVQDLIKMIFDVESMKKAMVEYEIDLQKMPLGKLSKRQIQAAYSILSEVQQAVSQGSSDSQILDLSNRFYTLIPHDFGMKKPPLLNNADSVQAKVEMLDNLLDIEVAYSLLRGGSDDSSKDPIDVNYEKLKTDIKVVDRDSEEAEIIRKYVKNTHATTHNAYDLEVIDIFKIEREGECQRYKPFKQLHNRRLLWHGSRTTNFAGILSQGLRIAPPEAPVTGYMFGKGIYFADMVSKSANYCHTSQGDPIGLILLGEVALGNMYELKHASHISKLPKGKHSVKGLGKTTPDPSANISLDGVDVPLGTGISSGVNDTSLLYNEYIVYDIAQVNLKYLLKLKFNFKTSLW
Sequence of PARP7 (Q7Z3E1 whole entry): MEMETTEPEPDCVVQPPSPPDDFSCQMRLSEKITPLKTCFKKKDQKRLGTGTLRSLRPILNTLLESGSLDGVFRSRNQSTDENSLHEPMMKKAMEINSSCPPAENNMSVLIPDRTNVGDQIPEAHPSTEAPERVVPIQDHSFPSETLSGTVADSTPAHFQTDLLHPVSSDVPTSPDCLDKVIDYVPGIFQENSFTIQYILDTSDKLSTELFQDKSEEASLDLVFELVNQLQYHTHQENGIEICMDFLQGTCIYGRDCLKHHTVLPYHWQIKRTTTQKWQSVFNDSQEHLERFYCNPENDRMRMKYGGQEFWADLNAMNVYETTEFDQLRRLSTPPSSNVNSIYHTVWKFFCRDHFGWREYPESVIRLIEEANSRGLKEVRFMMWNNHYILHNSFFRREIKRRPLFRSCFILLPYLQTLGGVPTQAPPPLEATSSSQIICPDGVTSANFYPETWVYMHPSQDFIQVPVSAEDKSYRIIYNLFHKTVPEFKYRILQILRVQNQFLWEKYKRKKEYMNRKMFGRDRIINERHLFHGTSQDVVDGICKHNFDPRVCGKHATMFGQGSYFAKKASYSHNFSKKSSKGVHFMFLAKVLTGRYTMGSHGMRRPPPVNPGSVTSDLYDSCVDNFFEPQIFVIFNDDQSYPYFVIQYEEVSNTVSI

Structure (SMILES) | IC50 (NCI-H1373 cells) [nM] | IC50 (PARP1) [nM] | IC50 (PARP7) [nM] | further results
O=C(CC[C@@H]1C[C@H](N2CCCC2)CN1c1cc(C(F)(F)F)c(=O)[nH]n1)N1CCN(c2ncc(C(F)(F)F)cn2)CC1 [Compound 38] | – | 36 | 5 | –
O=C(CC[C@@H]1C[C@@H](O)CN1c1cc(C(F)(F)F)c(=O)[nH]n1)N1CCN(c2ncc(C(F)(F)F)cn2)CC1 [Compound 31] | – | 25.9 | 4.4 | –
CCO[C@H]1C[C@@H](CCC(=O)N2CCN(c3ncc(C(F)(F)F)cn3)CC2)N(c2cc(C(F)(F)F)c(=O)[nH]n2)C1 [Compound 36] | – | 14.4 | 3.8 | –
CO[C@@H]1C[C@@H](C(=O)N2CCN(c3ncc(C(F)(F)F)cn3)CC2)N(c2cc(C(F)(F)F)c(=O)[nH]n2)C1 [Compound 70] | 58.2 | – | – | –
N[C@H]1C[C@@H](CCC(=O)N2CCN(c3ncc(C(F)(F)F)cn3)CC2)N(c2cc(C(F)(F)F)c(=O)[nH]n2)C1 [Compound 42] | – | 6 | 37 | –
O=C(CC[C@@H]1CC(F)(F)CN1c1cc(C(F)(F)F)c(=O)[nH]n1)N1CCN(c2ncc(C(F)(F)F)cn2)CC1 [Compound 23] | – | 9.7 | 3.2 | –
CO[C@@H]1C[C@@H](CCC(=O)N2CCN(c3ncc(C(F)(F)F)cn3)CC2)N(c2cc(C(F)(F)F)c(=O)[nH]n2)C1 [Compound 44] | – | 18 | 7 | –
O=C(CC[C@@H]1CCCCN1c1cc(C(F)(F)F)c(=O)[nH]n1)N1CCN(c2ncc(C(F)(F)F)cn2)CC1 [Compound 22] | – | 31.6 | 4.6 | –
O=C([C@@H]1C[C@H](Oc2ccccc2)CN1c1cc(C(F)(F)F)c(=O)[nH]n1)N1CCN(c2ncc(C(F)(F)F)cn2)CC1 [Compound 66] | – | 427 | 4 | –

Now from value to compound, other results behind:

IC50 (NCI-H1373 cells) [nM] | Structure (SMILES) | IC50 (PARP1) [nM] | IC50 (PARP7) [nM] | further results
12.4 | O=C(CC[C@@H]1C[C@@H](F)CN1c1cc(C(F)(F)F)c(=O)[nH]n1)N1CCN(c2ncc(C(F)(F)F)cn2)CC1 [Compound 20] | – | – | CLint scaled at 1 μM [1]: 46.6 mL/min/kg; CLint scaled at 1 μM [2]: 74.4 mL/min/kg; F ([3]; Oral gavage): 15.53%; AUC(0-inf) ([3]; Intravenous injection, 1 mg/kg): 523 ng·h/mL; Cmax ([3]; Intravenous injection, 1 mg/kg): 734 ng/mL; clearance ([3]; Intravenous injection, 1 mg/kg): 32 mL/min/kg; half-life ([3]; Intravenous injection, 1 mg/kg): 0.82 h; AUC(0-inf) [3, 5]: 94.4 ng·h/mL; Cmax [3, 5]: 15 ng/mL; CLint scaled at 1 μM [4]: 28.7 mL/min/kg
44.6 | CCO[C@@H]1C[C@@H](C(=O)N2CCN(c3ncc(C(F)(F)F)cn3)CC2)N(c2cc(C(F)(F)F)c(=O)[nH]n2)C1 [Compound 71] | – | – | –
69.2 | O=C(CC[C@@H]1C[C@@H](Oc2cc(F)cc(F)c2)CN1c1cc(C(F)(F)F)c(=O)[nH]n1)N1CCN(c2ncc(C(F)(F)F)cn2)CC1 [Compound 51] | – | – | –
10 | O=C(CC[C@@H]1CCCN1c1cc(C(F)(F)F)c(=O)[nH]n1)N1CCN(c2ncc(C(F)(F)F)cn2)CC1 [Compound 6] | – | – | CLint scaled at 1 μM [1]: 64.6 mL/min/kg; CLint scaled at 1 μM [2]: 137 mL/min/kg; F ([3]; Oral gavage): 18.1%; AUC(0-inf) ([3]; Intravenous injection, 1 mg/kg): 1380 ng·h/mL; Cmax ([3]; Intravenous injection, 1 mg/kg): 1950 ng/mL; clearance ([3]; Intravenous injection, 1 mg/kg): 12.2 mL/min/kg; half-life ([3]; Intravenous injection, 1 mg/kg): 1.43 h; AUC(0-inf) [3, 5]: 248 ng·h/mL; Cmax [3, 5]: 30.4 ng/mL; CLint scaled at 1 μM [4]: 31.6 mL/min/kg
